Data from article PMC4976923, “Potent Allosteric Dengue Virus NS5 Polymerase Inhibitors: Mechanism of Action and Resistance Profiling” (PLoS Pathogens, 2016).
Like-named read-outs stand apart in the source and are kept apart here.

What was measured:
[1] = test system: DENV2-NGC Ren-LUC Replicon in HuH-7; experiment: Stable HuH-7 DENV2-NGC renilla luciferase replicon assay; assay type: cell-based; conditions: read-out: HuH-7 DENV Replicon, DENV2, EC50
in vitro = assay type: cell-based
Protocol: (§1) A549, BHK-21 and Huh7 cells bearing stable DENV2 sub-genomic replicon or transiently electroporated DENV2-NGC replicon or infectious virus cDNAs were seeded into 384-well microplate (3,000 cells per well). After over-night incubation at 37°C with 5% CO2, the cells were treated with 2-fold serially diluted compounds, starting from 20 or 50 μM. At 48 hr of post-incubation, renilla luciferase activities were measured with the ViviRen live-cell substrate (Promega, USA) according to the manufacturer’s protocol. CellTiter-Glo reagent (Promega, USA) was then added to determine cytotoxic effects of compounds. For the HCV replicon assay, Huh-7.5 cells harboring the HCV replicon were seeded into a 96-well microplate (20,000 cells per well). At 48 hr after compound treatment, cells were assayed for firefly luciferase activity by using a Bright-Glo luciferase assay (Promega, USA). NITD-008, a nucleoside inhibitor of DENV and HCV was added as a control.

DENV2 replicon cells = DENV2 replicon cells from HuH-7, BHK-21 and A549 backgrounds, range; assay type: cell-based; conditions: Dengue virus, range across cell backgrounds
[2] = test system: DENV2-NGC Ren-LUC Replicon in A549; experiment: Stable A549 DENV2-NGC renilla luciferase replicon assay; assay type: cell-based; conditions: Dengue virus, 48 hr
Protocol: as §1
1 containing 2 % FBS, 1mM L-glutamine and 1 % penicillin-streptom ycin and incubated over-
At 24 h post-seeding, cells were inf ected with DENV1-4 at
3 multiplicity of infection [MOI] of 0.3-1 (DENV1, strain MY97- 10245, MOI = 0.5; DENV2,
5 MY01-22713; MOI = 0.5) and treated immediatel y with 10- point, 3-fold serially diluted
6 compounds (at final 0.5% DMSO concent ration; 4). At 48 h post-infection , cells wer e fix ed
8 DENV envelope protein ) and DRAQ5 (for nucl ear DNA) . Quantifications of DENV
9 envelope protein were determined using the Opera high content imaging s ystem and anal ysis
10 software (Perkin Elmer, USA). Calculation of EC50 values were perfo rmed using Helios
11 software p ackage (Nov ar tis, Basel).
13 Compound testing in DENV2 and HCV sub -genomic replicon assays. A549, BHK -21 and
14 Huh7 DENV2 sub- geno mic replicon cells were seed ed at a d ensit y o f 3,000 cells per w ell
15 in a 384-well microplate. After incubation at 37 °C with 5 % CO2 overnight, the cells were […]
17 µM concentrations. At 48 hr of post-incubation, r enilla luciferas e activities were measured […]

DENV2 FL NS5 L511V/E802D = molecular target: T1, DENV2 FL NS5 L511V/E802D (Dengue virus type 2, UniProt P14340, E3293D/L3003V); assay type: binding; conditions: 50 µM compound; for Protein melting temperature, Tm, DENV2 FL NS5 L511V/E802D: DMSO 35
T1 construct: Recombinant DENV2 (A, C) and DENV4 (B, D) FL NS5 proteins bearing single or double amino acid changes; made in house

[3] = Dengue virus, DENV2, Huh-7, 48 h
[4] = hamster, 2 days, read-out: CC50, BHK-21
[5] = human, HuH-7 (DENV2 replicon cells), 48 hr, ATP levels
[6] = human, 2 days, read-out: CC50, A549

| Structure (SMILES) | EC50 [1, 3] [nM] | CC50 (in vitro; [4]) [µM] | CC50 (in vitro; [5]) [µM] | CC50 (in vitro; [6]) [µM] | EC50 (DENV2 replicon cells) [µM] | EC50 [2] [nM] | Tm change compared to DMSO control, DENV2 FL NS5 L511V/E802D (DENV2 FL NS5 L511V/E802D) [°C] | Protein melting temperature, Tm, DENV2 FL NS5 L511V/E802D (DENV2 FL NS5 L511V/E802D) [°C] | EC50 ([1]; 48 hr) [nM] |
| --- | --- | --- | --- | --- | --- | --- | --- | --- | --- |
| COc1cccc(S(=O)(=O)NC(=O)c2cc(-c3ccc(C#CCO)s3)c(OC)cc2OC)c1 [Compound 27] | 3900 ± 620 | > 50 | > 100 | > 50 | 1 to 5 | 2300 | 0 | 35 |  |
| COc1cccc(S(=O)(=O)NC(=O)c2cc(-c3ccc(C#CCO)s3)c(OC)cc2C)c1 [Compound 26i] | 12100 |  | > 50 | > 50 | 12 to 15 | 15400 |  |  |  |
| COc1cc(OC)c(-c2ccc(C#CCO)s2)cc1C(=O)NS(=O)(=O)c1cccc2cccnc12 [Compound 29] | ~2000 | > 50 | > 50 | > 50 | 1 to 5 | 2800 | 0.5 | 35.5 | 1900 ± 200 |
